# Laboratory results from patent US20230039836A1, “AROMATIC SULPHONAMIDES DERIVATIVES THAT INHIBITS PDI A3, THEIR SYNTHESIS AND USE” (Uniwersytet Jagiellonski, priority 2020, published 2023).
# Where “and” joins values, the source holds several entries; their conditions need not be identical. Identical values can stand only once.
# Tests used:
# MCF-7 [1] = assay: Sulforhodamine B antiproliferative assay, 72 h, normal and hypoxia; assay type: cell-based, human; details: 72-hour exposition; for IC50: Homo sapiens, MCF7
# Experimental: (§1) Anticancer activity of PDI A1-inhibitors has been also tested in vitro in antiproliferative essay in normoxic and hypoxic conditions as well in estrogen-stimulated cancer cells. In the experiment, cells were seeded on 96-well plates (Sarstedt, Germany) in appropriate culture medium at a density of 10^5 cells/mL 24 h before adding the tested compounds. Cells were treated with each compound in four concentrations in the range 0.1-100 ug/mL. […] After 72 h of compound treatment at 37° C., 5 % CO2 humid atmosphere and in wo different oxygen level conditions: 21% - normal and <1% - hypoxia. In some experiments, the MDA-MB-231 and MCF-7 cells were seeded with or without 200 nM estradiol and after 24 h the tested compounds were added. A previously described sulforhodamine B antiproliferative assay was used with minor modifications (Skehan P et al., 1990). Briefly, cells were fixed with 50 µL/well of 50% (w/v) trichloroacetic acid (Avantor Performance Materials, Gliwice, Poland). After 1 h incubation, plates were washed several times with tap water and 50 µL of 0.4% (w/v) solution of sulforhodamine B (Sigma-Aldrich, Germany) in 1% (v/v) acetic acid (Avantor Performance Materials, Gliwice, Poland) was added to each well. After 30 min incubation at room temperature, unbound dye was washed out with 1% (v/v) acetic acid, whereas bound dye was solubilized with 10 mM unbuffered TRIS (Avantor Performance Materials, Gliwice, Poland) solution. The entire procedure was performed using a BioTek EL-406 washing station (BioTek Instruments, USA). After additional 30 min, absorbance was read using a Biotek Hybrid H4 reader (BioTek Instruments, USA) at 540 nm wavelength. MTT assay was used alternatively for HL-60 cell line and in the experiment in which estrogens are added (specified in the table legend). Absorbance was measured using a Biotek Hybrid H4 reader at 570 nm wavelength for MTT assay.
# (§2) Compounds at each concentration were tested in triplicate in a single experiment and each experiment was repeated at least three times independently.
# (§3) Results of in vitro antiproliferative effects are shown in Table 3 and Table 4 and are presented as mean IC50 ± SD calculated using the Prolab-3 system based on Cheburator 0.4 software.
# MDA-MB-231 [2] = assay: as above; assay type: cell-based, human; details: 72-hour exposition; for IC50: Homo sapiens, MDA-MB-231
# Experimental: as §1, §2, §3
# Caco-2 = assay: Sulforhodamine B antiproliferative assay, 72 h; assay type: cell-based, human; details: normal (21% of oxygen), 72-hour exposition
# Experimental: In the experiment, cells were seeded on 96-well plates (Sarstedt, Germany) in appropriate culture medium at a density of 10^5 cells/mL 24 h before adding the tested compounds. Cells were treated with each compound in four concentrations in the range 0.1-100 ug/mL. […] Briefly, cells were fixed with 50 µL/well of 50% (w/v) trichloroacetic acid (Avantor Performance Materials, Gliwice, Poland). After 1 h incubation, plates were washed several times with tap water and 50 µL of 0.4% (w/v) solution of sulforhodamine B (Sigma-Aldrich, Germany) in 1% (v/v) acetic acid (Avantor Performance Materials, Gliwice, Poland) was added to each well. After 30 min incubation at room temperature, unbound dye was washed out with 1% (v/v) acetic acid, whereas bound dye was solubilized with 10 mM unbuffered TRIS (Avantor Performance Materials, Gliwice, Poland) solution. […] After additional 30 min, absorbance was read using a Biotek Hybrid H4 reader (BioTek Instruments, USA) at 540 nm wavelength.
# HT-29 [3] = assay: Sulforhodamine B antiproliferative assay, 72 h; assay type: cell-based, human; details: normal (21% of oxygen), 72-hour exposition
# Experimental: as §1, §2, §3
# PDI A1 = target: T1, PDI A1 (Homo sapiens, UniProt P07237); assay: Insulin turbidometric assay, inhibition of PDI A1; assay type: biochemical; details: insulin reduction, turbidity at 650 nm, 60 min incubation at 37° C.; read-out: Inhibition of PDI A1 (EC 50)
# T1 construct: purchased Mybiosource; host or cells: E. coli
# Experimental: The inhibitory effects compounds of invention on activity of PDI A1 was assess based on the insulin turbidometric assay. Enzymatic activity of PDIA1 was confirmed by measuring the turbidity increase at 650 nm due to insulin reduction. The assay mixture was prepared by addition 10 ug/ml PDIA1 (E.coli recombinant protein; Mybiosource), 0.1 mM phosphate buffer (pH7.6), 1 mM EDTA, 0.087 mM DTT and with or without tested compound and was incubated for 60 min, at 37° C. Reaction was started by addition insulin and DTT. Final concentration of insulin and DTT in assay mixture was 0.15 mM and 0.174 mM, respectively. Turbidity was detected at 650 nm against reference samples without PDI A1s. The measurements were performed at 650 nm using 120-s recordings.
# [4] = system: Caco-2 (human colon adenocarcinoma); assay: MTT antiproliferative assay, 48 h; assay type: cell-based; details: Homo sapiens, Caco-2, 48-hour exposition, read-out: Cytotoxicity, IC50, µM CaCo-2
# Experimental: (§4) About 2000-4000 cells per well (depending on line nature) were placed in 96-well plates and after 24 h compounds were added to the wells. Untreated cells were used as a control. The plates were incubated for 48 h, 37° C., 5% CO2. The number of surviving cells was determined using 3-(4,5-dimethylthiazol-2-yl)-2,5-diphenyltetrazolinium bromide (MTT). MTT-test: after incubating culture medium was removed and 200 µL fresh medium with 20 µL MTT (2 mg/mL in HBSS) was added in each well of the plate. After incubation (3 hr., 37° C., 5% CO2), the medium with MTT was removed and 200 µL DMSO were added at once to each sample. The samples were tested at 540 nm on Thermo Scientific Multiskan EX microplate photometer. The half-maximal inhibitory concentration (IC50) of each compound was calculated using Graph Pad Prism® 3.0.
# [5] = system: HT-1080 (human fibrosarcoma); assay: MTT antiproliferative assay, 48 h; assay type: cell-based; details: 48-hour exposition, read-out: Cytotoxicity, IC50, µM HT-1080
# Experimental: as §4
# [6] = system: MCF-7 (human breast adenocarcinoma, estrogen-positive); assay: MTT antiproliferative assay, 48 h; assay type: cell-based; details: Homo sapiens, MCF7, 48-hour exposition, read-out: Cytotoxicity, IC50, µM MCF-7
# Experimental: as §4
# [7] = system: MDA-MB-231 (human mammary breast adenocarcinoma); assay: MTT antiproliferative assay, 48 h; assay type: cell-based; details: Homo sapiens, MDA-MB-231, 48-hour exposition, read-out: Cytotoxicity, IC50, µM MDA-MB-231
# Experimental: as §4
# MCF-7 [8] = assay: MTT antiproliferative assay, 72 h, with or without estradiol; assay type: cell-based, human; details: for Selectivity index (SI): IC50 of MCF-10A/ IC50 of MCF-7 / IC50: 72 hours exposition; for IC50: Homo sapiens, MCF7, MTT
# Experimental: as §1, §2, §3
# (§5) Statistical analysis: Unpaired t test. *p<0.05 as compared to appropriate cells not pretreated with estradiol. MTT assay was used for antiproliferative activity assessment.
# MDA-MB-231 [9] = assay: as above; assay type: cell-based, human; details: for IC50: Homo sapiens, MDA-MB-231, 72 hours exposition, MTT
# Experimental: as §1, §2, §3, §5
# HL-60 = assay: MTT antiproliferative assay, 72 h; assay type: cell-based; details: Homo sapiens, 72 hours exposition, read-out: IC50 [µg/ml] HL-60 normal
# Experimental: as §1, §2, §3, §5
# HT-29 [10] = assay: MTT antiproliferative assay, 72 h; assay type: cell-based; details: Homo sapiens, 72 hours exposition, read-out: IC50 [µg/ml] HT-29 normal
# Experimental: as §1, §2, §3, §5
# [11] = system: Lewis Lung Carcinoma (LLC); assay: Murine model of Lewis Lung Carcinoma; assay type: in vivo, mice
# Experimental: To confirm anticancer activity of selected compounds of invention, PDI A1-inhibitors in vivo, selected compounds of invention were tested in the murine model of Lewis Lung Carcinoma (LLC). The Lewis Lung Carcinoma (LLC) cell line was obtained from the ATCC collection and was cultured in a humidified atmosphere of 5% CO2 at 37° using Dulbecco’s modified Eagle’s medium (DMEM) that contained 10% bovine serum (Sigma). Female (6-8 weeks old) C57BL/6 mice (purchased from Envigo RMS. BV., Nederland) were acclimated for one week and were fed with animal chow and water ad libitum. The C57BL/6 mice were injected s.c. with 0.5 × 10^5 LLC cells per mice in 100 µL PBS. Compounds were dissolved in DMSO and then 0.9% NaCl (DMSO final concentration 1%) were added. In each treatment group, i.p. injections of 100 µl compound were started on 1 day after tumor inoculation. Control animals injected with equal volume of 0.9% NaCl with 1% DMSO administered in the same schedule as other groups. Tumor larger radius (a) and smaller radius (b) were measured by calipers. The tumor volume (Tv) was calculated according the following formulaTv = V=4 • ab2/3. The mice in control group were sacrificed 17 days after tumor establishment. Tumor tissues were dissected, weighed and frozen in OCT compound.
# [12] = 200 nM estradiol, read-out: IC50 [µg/ml] MCF-7 + estradiol
# [13] = not pretreated with estradiol, read-out: IC50 [µg/ml] MCF-7 normal
# [14] = 200 nM estradiol, read-out: IC50 [µg/ml] MDA-MB-231 + estradiol
# [15] = not pretreated with estradiol, read-out: IC50 [µg/ml] MDA-MB-231 normal
# [16] = C57BL/6 mice, LLC s.c., 50 mg/kg i.p., 5 animals
# [17] = C57BL/6 mice, LLC s.c., 50 mg/kg i.p., single animals, 50 mg/kg
# T1 sequence (P07237 18-508, species assumed): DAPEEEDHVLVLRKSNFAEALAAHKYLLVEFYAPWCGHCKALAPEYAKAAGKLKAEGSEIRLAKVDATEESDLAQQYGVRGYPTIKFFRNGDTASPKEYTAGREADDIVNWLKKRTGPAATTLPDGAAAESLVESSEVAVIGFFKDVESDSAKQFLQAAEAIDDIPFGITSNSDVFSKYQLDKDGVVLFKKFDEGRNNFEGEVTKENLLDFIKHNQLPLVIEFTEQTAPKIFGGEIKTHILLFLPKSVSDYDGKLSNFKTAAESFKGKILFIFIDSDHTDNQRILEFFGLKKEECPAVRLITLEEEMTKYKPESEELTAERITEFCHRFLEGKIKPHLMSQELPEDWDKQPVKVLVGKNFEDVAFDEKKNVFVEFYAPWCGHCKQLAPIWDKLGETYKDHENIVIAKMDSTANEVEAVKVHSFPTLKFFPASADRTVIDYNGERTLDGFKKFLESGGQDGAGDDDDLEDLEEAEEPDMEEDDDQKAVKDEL
SMILES,IC50 [µg/ml] MCF-7 hypoxia (MCF-7 [1]; hypoxia (<1% of oxygen)) [µg/mL],IC50 [µg/ml] MCF-7 normal (MCF-7 [1]; normal (21% of oxygen)) [µg/mL],IC50 [µg/ml] MDA-MB-231 hypoxia (MDA-MB-231 [2]; hypoxia (<1% of oxygen)) [µg/mL],IC50 [µg/ml] MDA-MB-231 normal (MDA-MB-231 [2]; normal (21% of oxygen)) [µg/mL],IC50 [µg/ml] Caco-2 normal (Caco-2) [µg/mL],IC50 [µg/ml] HT-29 normal (HT-29 [3]) [µg/mL],EC50 (PDI A1) [nM],IC50 [4] [µM],IC50 [5] [µM],IC50 [6] [µM],IC50 [7] [µM],Selectivity index (SI): IC50 of MCF-10A/ IC50 of MCF-7 (MCF-7 [8]),IC50 (MCF-7 [8]; [12]) [µg/mL],IC50 (MCF-7 [8]; [13]) [µg/mL],IC50 (MDA-MB-231 [9]; [14]) [µg/mL],IC50 (MDA-MB-231 [9]; [15]) [µg/mL],IC50 (HL-60) [µg/mL],IC50 (HT-29 [10]) [µg/mL],further results
"O=C(C1CC1)N1CCN(Cn2sc3ccccc3c2=O)CC1 [LOC14, reference compound]",3.9 ± 0.3,4.4 ± 0.9,2.6 ± 0.5,2.8 ± 0.4,9.1 ± 3.4,12.6 ± 8.4,–,–,–,–,–,–,–,–,–,–,–,–,–
"CCCCCCc1ccc(S(=O)(=O)N2CC2C(N)=O)cc1 (stereo not shown) [Compound C-3389, 1-(4-Hexylphenyl)sulfonylaziridine-2-carboxamide]",–,–,–,–,–,–,30,49 ± 2,36 ± 3,47 ± 6,32 ± 3,0.23,18.4 ± 4.3,26.7 ± 4.5,28 ± 1.7,23.2 ± 1,2.8 ± 0.8,31.2 ± 6.7,Change of antiproliferative activity towards MDA-MB-231 during simultaneous incubation with estradiol (MDA-MB-231 [9]; with estradiol versus without): slight decrease of antiproliferative activity
"COc1ccc(N2C(=O)/C(=C\c3ccc([N+](=O)[O-])s3)SC2=S)cc1 [CCF642, reference compound]",0.6 ± 0.6,0.7 ± 0.5,0.3 ± 0.2,0.3 ± 0.1,0.4 ± 0.1,0.4 ± 0.05,–,–,–,–,–,–,–,–,–,–,–,–,–
"COC(=O)C1CN1S(=O)(=O)c1ccc(C)cc1 (stereo not shown) [Compound C-3161, Methyl 1-(p-tolylsulfonyl)aziridine-2-carboxylate]",–,–,–,–,–,–,5000,–,–,–,–,–,–,–,–,–,–,–,"IC50 (MCF-7 [1]; hypoxia (<1% of oxygen), read-out: IC50 [µg/ml] MCF-7 hypoxia): 3.6 ± 0.3 µg/mL; IC50 (MCF-7 [1]; normal (21% of oxygen), read-out: IC50 [µg/ml] MCF-7 normal): 3.6 ± 0.3 µg/mL; IC50 (MDA-MB-231 [2]; hypoxia (<1% of oxygen), read-out: IC50 [µg/ml] MDA-MB-231 hypoxia): 11.3 ± 10.6 µg/mL; IC50 (MDA-MB-231 [2]; normal (21% of oxygen), read-out: IC50 [µg/ml] MDA-MB-231 normal): 9.9 ± 8.2 µg/mL; IC50 (Caco-2; Homo sapiens, Caco-2): 3.5 ± 0.3 µg/mL; IC50 (HT-29 [3]; Homo sapiens, HT-29): 28.4 ± 5 µg/mL; Tumor volume average±stdev, day 10 [11, 16]: 105±144 mm3; Tumor volume average±stdev, day 12 [11, 16]: 172±240 mm3; Tumor volume average±stdev, day 14 [11, 16]: 345±377 mm3; Tumor volume average±stdev, day 16 [11, 16]: 380±446 mm3; Tumor volume average±stdev, day 17 [11, 16]: 368±393 mm3; Individual tumor volumes, day 10 [11, 17]: 258 mm3 and 0 mm3 (3×) and 266 mm3; Individual tumor volumes, day 12 [11, 17]: 496 mm3 and 0 mm3 (3×) and 365 mm3; Individual tumor volumes, day 14 [11, 17]: 829 mm3 and 254 mm3 and 0 mm3 (2×) and 642 mm3; Individual tumor volumes, day 16 [11, 17]: 980 mm3 and 199 mm3 and 0 mm3 (2×) and 719 mm3; Individual tumor volumes, day 17 [11, 17]: 946 mm3 and 476 mm3 and 0 mm3 (2×) and 419 mm3; Anti-cancer activity in vivo ([11]; LLC model, Tables 6 and 7): possess anti-cancer activity in vivo"
"COC(=O)C1CN1S(=O)(=O)c1cccc2c(N(C)C)cccc12 (stereo not shown) [Compound C-3326, Methyl 1-[[5-(dimethylamino)-1-naphthyl]sulfonyl]aziridine-2-carboaylate]",–,–,–,–,–,–,–,170 ± 20,100 ± 5,349 ± 13,169 ± 20,4.84,10.4 ± 2.4,5.4 ± 1.7,17.7 ± 2.1,15.7 ± 3.1,1.9 ± 0.6,39.2 ± 6.5,Change in sensitivity of MCF-7 after addition of estradiol (MCF-7 [8]; with estradiol versus without): slight decrease in sensitivity
